# Patent US10428080B2, “TBK/IKK inhibitor compounds and uses thereof” (Merck Patent GmbH, priority 2015, dated 2019)
# Counter-ions that a name gives are not always drawn.
# Assays:
# [1] = target: T1, TBK1 (Homo sapiens, UniProt Q9UHD2); assay: TBK Biochemical Assay; details: read-out: TBK1 IC50
# T1 sequence (Q9UHD2 1-729): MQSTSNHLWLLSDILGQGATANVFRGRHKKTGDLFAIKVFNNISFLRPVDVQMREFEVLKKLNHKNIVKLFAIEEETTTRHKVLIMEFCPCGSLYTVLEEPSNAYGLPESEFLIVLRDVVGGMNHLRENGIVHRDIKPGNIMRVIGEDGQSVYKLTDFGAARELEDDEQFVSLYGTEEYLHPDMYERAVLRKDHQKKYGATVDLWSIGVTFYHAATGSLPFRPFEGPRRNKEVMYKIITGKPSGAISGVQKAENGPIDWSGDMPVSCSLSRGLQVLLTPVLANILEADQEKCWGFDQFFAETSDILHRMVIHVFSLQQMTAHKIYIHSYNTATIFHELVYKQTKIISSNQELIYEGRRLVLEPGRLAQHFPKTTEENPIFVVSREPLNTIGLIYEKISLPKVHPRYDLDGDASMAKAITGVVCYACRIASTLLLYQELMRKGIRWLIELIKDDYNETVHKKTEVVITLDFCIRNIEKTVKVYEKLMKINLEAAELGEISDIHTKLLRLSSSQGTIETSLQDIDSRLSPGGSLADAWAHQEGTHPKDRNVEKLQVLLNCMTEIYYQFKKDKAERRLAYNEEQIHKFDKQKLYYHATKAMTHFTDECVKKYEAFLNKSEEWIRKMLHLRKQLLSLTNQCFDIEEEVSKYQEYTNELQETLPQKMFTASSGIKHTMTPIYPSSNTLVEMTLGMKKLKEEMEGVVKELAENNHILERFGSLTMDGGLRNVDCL
# Summary of the method: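 Caliper LabChip mobility-shift readout of substrate and product after 90 min of TBK1 reaction at 25° C and stop-buffer addition. Compounds tested in 1:4 serial dilution over 10 points from 30 uM final at 1% DMSO; staurosporine 10 uM final defines full inhibition.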
# [2] = target: T2, IKKε (Homo sapiens, UniProt Q14164); assay: IKKe Biochemical Assay; details: read-out: IKKε IC50
# T2 sequence (Q14164 1-716): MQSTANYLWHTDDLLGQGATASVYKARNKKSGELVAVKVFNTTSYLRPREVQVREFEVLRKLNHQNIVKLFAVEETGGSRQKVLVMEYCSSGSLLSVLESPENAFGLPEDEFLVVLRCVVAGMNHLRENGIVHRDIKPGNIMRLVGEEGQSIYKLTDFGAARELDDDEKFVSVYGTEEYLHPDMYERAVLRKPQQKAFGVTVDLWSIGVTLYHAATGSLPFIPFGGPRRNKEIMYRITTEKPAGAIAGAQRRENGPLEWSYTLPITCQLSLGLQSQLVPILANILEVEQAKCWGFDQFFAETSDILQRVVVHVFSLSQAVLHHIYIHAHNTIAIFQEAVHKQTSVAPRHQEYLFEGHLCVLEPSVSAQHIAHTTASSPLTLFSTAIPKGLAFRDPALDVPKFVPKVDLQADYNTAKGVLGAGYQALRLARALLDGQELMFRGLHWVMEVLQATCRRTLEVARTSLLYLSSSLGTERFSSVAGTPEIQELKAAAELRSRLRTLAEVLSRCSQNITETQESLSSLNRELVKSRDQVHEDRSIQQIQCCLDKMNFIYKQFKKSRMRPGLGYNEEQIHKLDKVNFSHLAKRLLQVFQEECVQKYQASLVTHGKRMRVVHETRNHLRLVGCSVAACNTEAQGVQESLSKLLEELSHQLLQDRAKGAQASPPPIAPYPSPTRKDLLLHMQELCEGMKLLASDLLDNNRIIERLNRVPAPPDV
# Summary of the method: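 Activity was measured as mobility-shift separation of phosphorylated from unphosphorylated substrate on a LabChip EZ Reader. Compound was titrated from 30 uM final in 10 points, 1:4 steps, with 1% DMSO, and enzyme plus substrate reacted 90 min at 25° C before stop buffer. Control wells held 10 uM staurosporine.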
SMILES,IC50 [1] [nM],IC50 [2] [nM]
"CN(C)C(=O)c1ccc(-c2cc3nccc(-c4ccc(CN5CCOCC5)c(C#N)c4)c3o2)cc1 [Compound 222, 4-(7-(3-cyano-4-(morpholinomethyl)phenyl)furo[3,2-b]pyridin-2-yl)-N,N-dimethylbenzamide]",100 to 1000,100 to 1000
"CN(C)C(=O)c1ccc(-c2cc3nccc(-c4ccc(C(C)(C)N5CCOCC5)c(C#N)c4)c3o2)cc1 [Compound 223, 4-(7-(3-cyano-4-(2-morpholinopropan-2-yl)phenyl)furo[3,2-b]pyridin-2-yl)-N,N-dimethylbenzamide hydrochloride]",< 100,< 100
"CN(C)C(=O)c1ccc(-c2cc3nccc(-c4cc(F)c(NC5CCOCC5)c(C#N)c4)c3o2)cc1 [Compound 224, 4-(7-(3-cyano-5-fluoro-4-(tetrahydro-2H-pyran-4-ylamino)phenyl)furo[3,2-b]pyridin-2-yl)-N,N-dimethylbenzamide hydrochloride]",100 to 1000,< 100
"CN(C)C(=O)c1ccc(-c2cc3nccc(-c4cc(F)c(N(C)C5CCOCC5)c(C#N)c4)c3o2)cc1 [Compound 225, 4-(7-(3-cyano-5-fluoro-4-(methyl(tetrahydro-2H-pyran-4-yl)amino)phenyl)furo[3,2-b]pyridin-2-yl)-N,N-dimethylbenzamide hydrochloride]",100 to 1000,100 to 1000
"COc1cc(C(=O)N(C)C)ccc1-c1cc2nccc(-c3ccc(NC4CCOCC4)c(C#N)c3)c2o1 [Compound 226, 4-(7-(3-cyano-4-(tetrahydro-2H-pyran-4-ylamino)phenyl)furo[3,2-b]pyridin-2-yl)-3-methoxy-N,N-dimethylbenzamide]",< 100,< 100
"COc1cc(C(=O)N(C)C)ccc1-c1cc2nccc(-c3ccc(N(C)C4CCOCC4)c(C#N)c3)c2o1 [Compound 227, 4-(7-(3-cyano-4-(methyl(tetrahydro-2H-pyran-4-yl)amino)phenyl)furo[3,2-b]pyridin-2-yl)-3-methoxy-N,N-dimethylbenzamide]",< 100,< 100
"COc1cc(C(=O)N(C)C)ccc1-c1cc2nccc(-c3ccc(NC4CC(C)OC(C)C4)c(C#N)c3)c2o1 (stereo not drawn) [Compound 228, 4-(7-(3-cyano-4-(2,6-dimethyl-tetrahydro-2H-pyran-4-ylamino)phenyl)furo[3,2-b]pyridin-2-yl)-3-methoxy-N,N-dimethylbenzamide]",100 to 1000,< 100
"COc1cc(C(=O)N(C)C)ccc1-c1cc2nccc(-c3ccc(OC4CC(C)(C)NC(C)(C)C4)c(C#N)c3)c2o1 [Compound 229, 4-(7-(3-cyano-4-(2,2,6,6-tetramethylpiperidin-4-yloxy)phenyl)furo[3,2-b]pyridin-2-yl)-3-methoxy-N,N-dimethylbenzamide]",100 to 1000,100 to 1000
"COc1cc(C(=O)N(C)CCO)ccc1-c1cc2nccc(-c3ccc(NC4CCOCC4)c(C#N)c3)c2o1 [Compound 230, 4-(7-(3-cyano-4-(tetrahydro-2H-pyran-4-ylamino)phenyl)furo[3,2-b]pyridin-2-yl)-N-(2-hydroxyethyl)-3-methoxy-N-methylbenzamide]",< 100,< 100
"COc1cc(C(=O)N(C)C)ccc1-c1cc2nccc(-c3ccc(O[C@H]4[C@H](C)COC[C@@H]4C)c(C#N)c3)c2o1 [Compound 232, 4-(7-(3-cyano-4-(3,5-dimethyl-tetrahydro-2H-pyran-4-yloxy)phenyl)furo[3,2-b]pyridin-2-yl)-3-methoxy-N,N-dimethylbenzamide]",< 100,< 100
"COc1cc(C(=O)N(C)C)ccc1-c1cc2nccc(-c3ccc(O[C@@H]4[C@H](C)COC[C@@H]4C)c(C#N)c3)c2o1 [Compound 233, 4-(7-(3-cyano-4-(3,5-dimethyl-tetrahydro-2H-pyran-4-yloxy)phenyl)furo[3,2-b]pyridin-2-yl)-3-methoxy-N,N-dimethylbenzamide]",< 100,< 100
"COc1cc(C(=O)N(C)C)ccc1-c1cc2nccc(-c3ccc(CN4CCOCC4)c(C#N)c3)c2o1 [Compound 234, 4-(7-(3-cyano-4-(morpholinomethyl)phenyl)furo[3,2-b]pyridin-2-yl)-3-methoxy-N,N-dimethylbenzamide]",< 100,< 100
"COc1cc(C(=O)N(C)C)ccc1-c1cc2nccc(-c3ccc(C(C)(C)N4CCOCC4)c(C#N)c3)c2o1 [Compound 235, 4-(7-(3-cyano-4-(2-morpholinopropan-2-yl)phenyl)furo[3,2-b]pyridin-2-yl)-3-methoxy-N,N-dimethylbenzamide hydrochloride]",100 to 1000,100 to 1000
"COc1cc(C(=O)N(C)C)ccc1-c1cc2nccc(-c3cc(F)c(NC4CCOCC4)c(C#N)c3)c2o1 [Compound 236, 4-(7-(3-cyano-5-fluoro-4-(tetrahydro-2H-pyran-4-ylamino)phenyl)furo[3,2-b]pyridin-2-yl)-3-methoxy-N,N-dimethylbenzamide]",< 100,< 100
"COc1cc(C(=O)N(C)C)ccc1-c1cc2nccc(-c3cc(F)c(N(C)C4CCOCC4)c(C#N)c3)c2o1 [Compound 237, 4-(7-(3-cyano-5-fluoro-4-(methyl(tetrahydro-2H-pyran-4-yl)amino)phenyl)furo[3,2-b]pyridin-2-yl)-3-methoxy-N,N-dimethylbenzamide]",< 100,< 100
"CN(C)C(=O)c1ccc(-c2cc3nccc(-c4ccc(OC5CCOCC5)c(C#N)c4)c3o2)c(F)c1 [Compound 238, 4-(7-(3-cyano-4-(tetrahydro-2H-pyran-4-yloxy)phenyl)furo[3,2-b]pyridin-2-yl)-3-fluoro-N,N-dimethylbenzamide]",< 100,< 100
"CN(C)C(=O)c1ccc(-c2cc3nccc(-c4ccc(OC5CCOCC5)c(C#N)c4)c3o2)c(Cl)c1 [Compound 239, 3-chloro-4-(7-(3-cyano-4-(tetrahydro-2H-pyran-4-yloxy)phenyl)furo[3,2-b]pyridin-2-yl)-N,N-dimethylbenzamide]",< 100,< 100
"CN(C)C(=O)c1ccc(-c2cc3nccc(-c4ccc(OC5CCOCC5)c(C#N)c4)c3o2)c(C(F)(F)F)c1 [Compound 240, 4-(7-(3-cyano-4-(tetrahydro-2H-pyran-4-yloxy)phenyl)furo[3,2-b]pyridin-2-yl)-N,N-dimethyl-3-(trifluoromethyl)benzamide]",100 to 1000,100 to 1000
"CN(C)C(=O)c1ccc(-c2cc3nccc(-c4ccc(OC5CCOCC5)c(C#N)c4)c3o2)c(OC(F)(F)F)c1 [Compound 241, 4-(7-(3-cyano-4-(tetrahydro-2H-pyran-4-yloxy)phenyl)furo[3,2-b]pyridin-2-yl)-N,N-dimethyl-3-(trifluoromethoxy)benzamide]",< 100,< 100
"CN(C)C(=O)c1ccc(-c2cc3nccc(-c4ccc(OC5CCOCC5)c(C#N)c4)c3o2)nn1 [Compound 242, 6-(7-(3-cyano-4-(tetrahydro-2H-pyran-4-yloxy)phenyl)furo[3,2-b]pyridin-2-yl)-N,N-dimethylpyridazine-3-carboxamide hydrochloride]",100 to 1000,100 to 1000
"CN(C)C(=O)c1ccc(-c2cc3nccc(-c4ccc(OC5CCOCC5)c(C#N)c4)c3o2)nc1 [Compound 243, 6-(7-(3-cyano-4-(tetrahydro-2H-pyran-4-yloxy)phenyl)furo[3,2-b]pyridin-2-yl)-N,N-dimethylnicotinamide]",< 100,< 100
